HELM strings list units from the 5' end as sugar, base in round brackets, then linkage (d deoxyribose, r ribose, m 2'-O-methyl, p phosphodiester). Strings are as the collection lists them, not checked against the first reports. ss, as = sense and antisense strand; [lna] = locked nucleic acid (LNA); [hna] = hexitol nucleic acid; [s4r] = 4'-thioribose; [fl2r] = 2'-fluoro
Also: test system not given here.

For this data set the following is noted: siRNA.
For the substance “RNA1{[fl2r](G)p.m(A)p.[fl2r](C)p.m(G)p.[fl2r](U)p.m(A)p.[fl2r](A)p.m(A)p.[fl2r](C)p.m(G)p.[fl2r](G)p.m(C)p.[fl2r](C)p.m(A)p.[fl2r](C)p.m(A)p.[fl2r](A)p.m(G)p.[fl2r](U)p.m(U)p.[fl2r](C)}|RNA2{r(A)p.m(C)p.r(U)p.r(U)p.r(G)p.r(U)p.r(G)p.r(G)p.r(C)p.r(C)p.r(G)p.r(U)p.r(U)p.r(U)p.r(A)p.r(C)p.r(G)p.r(U)p.r(C)p.r(G)p.r(C)}$$$RNA1{StrandType:ss}|RNA2{StrandType:as}$”, the target mRNA knockdown worked out at 46.2%.

Regarding “RNA1{m(G)p.r(A)p.m(A)p.r(G)p.m(A)p.r(G)p.m(U)p.r(U)p.m(A)p.r(A)p.m(C)p.r(C)p.m(C)p.r(G)p.m(G)p.r(G)p.m(A)p.r(C)p.r(U)p.r(T)p.r(T)}|RNA2{r(A)p.r(G)p.r(U)p.r(C)p.r(C)p.r(C)p.r(G)p.r(G)p.r(G)p.r(U)p.r(U)p.r(A)p.r(A)p.r(C)p.r(U)p.r(C)p.r(U)p.r(U)p.r(C)p.r(T)p.r(T)}$$$RNA1{StrandType:ss}|RNA2{StrandType:as}$”, the target mRNA knockdown came to 17%. The figure for “RNA1{r(C)p.r(U)p.r(U)p.r(A)p.r(C)p.r(G)p.r(C)p.r(U)p.r(G)p.r(A)p.r(G)p.r(U)p.r(A)p.r(C)p.r(U)p.r(U)p.r(C)p.r(G)p.r(A)p.r(T)p.r(T)}|RNA2{r(U)p.r(C)p.r(G)p.r(A)p.r(A)p.r(G)p.r(U)p.r(A)p.r(C)p.r(U)p.r(C)p.r(A)p.r(G)p.r(C)p.r(G)p.r(U)p.r(A)p.r(A)p.[lna](G)p.r(T)p.r(T)}$$$RNA1{StrandType:ss}|RNA2{StrandType:as}$” is 88%. Consider “RNA1{r(G)p.r(A)p.r(C)p.r(G)p.[hna](U)p.r(A)p.r(A)p.[hna](A)p.r(C)p.r(G)p.[hna](G)p.r(C)p.r(C)p.[hna](A)p.r(C)p.r(A)p.r(A)p.r(G)p.[hna](U)p.[hna](U)p.d(T)}|RNA2{r(A)p.[hna](C)p.r(U)p.r(U)p.r(G)p.r(U)p.r(G)p.r(G)p.r(C)p.r(C)p.r(G)p.r(U)p.r(U)p.r(U)p.r(A)p.r(C)p.r(G)p.[hna](U)p.[hna](C)p.[hna](G)p.d(T)}$$$RNA1{StrandType:ss}|RNA2{StrandType:as}$”, for which the target mRNA knockdown amounted to 23.2%.

For “RNA1{m(G)p.r(G)p.m(A)p.r(G)p.m(C)p.r(A)p.m(C)p.r(G)p.m(C)p.r(U)p.m(U)p.r(A)p.m(C)p.r(U)p.m(A)p.r(C)p.m(C)p.r(U)p.m(U)p.r(T)p.r(T)}|RNA2{r(A)p.r(A)p.r(G)p.r(G)p.r(U)p.r(A)p.r(G)p.r(U)p.r(A)p.r(A)p.r(G)p.r(C)p.r(G)p.r(U)p.r(G)p.r(C)p.r(U)p.r(C)p.r(C)p.r(T)p.r(T)}$$$RNA1{StrandType:ss}|RNA2{StrandType:as}$”, the target mRNA knockdown worked out at 51%. For the substance “RNA1{[fl2r](C)p.r(C)p.[fl2r](C)p.r(U)p.[fl2r](C)p.r(C)p.[fl2r](C)p.r(C)p.[fl2r](U)p.r(G)p.[fl2r](U)p.r(C)p.[fl2r](C)p.r(C)p.[fl2r](C)p.r(G)p.[fl2r](C)p.r(U)p.[fl2r](U)p.r(T)p.r(T)}|RNA2{[fl2r](A)p.[fl2r](A)p.r(G)p.r(C)p.r(G)p.r(G)p.r(G)p.r(G)p.[fl2r](A)p.r(C)p.[fl2r](A)p.r(G)p.r(G)p.r(G)p.r(G)p.[fl2r](A)p.r(G)p.r(G)p.r(G)p.r(T)p.r(T)}$$$RNA1{StrandType:ss}|RNA2{StrandType:as}$”, the target mRNA knockdown was found to be 41%.

With “RNA1{m(U)p.r(C)p.m(C)p.r(U)p.m(A)p.r(G)p.m(C)p.r(U)p.m(G)p.r(U)p.m(C)p.r(U)p.m(U)p.r(G)p.m(U)p.r(C)p.m(C)p.r(C)p.m(U)p.r(T)p.r(T)}|RNA2{r(A)p.r(G)p.r(G)p.r(G)p.r(A)p.r(C)p.r(A)p.r(A)p.r(G)p.r(A)p.r(C)p.r(A)p.r(G)p.r(C)p.r(U)p.r(A)p.r(G)p.r(G)p.r(A)p.r(T)p.r(T)}$$$RNA1{StrandType:ss}|RNA2{StrandType:as}$”, the target mRNA knockdown turned out to be 27%. For “RNA1{r(A)p.r(A)p.r(C)p.r(C)p.[fl2r](C)p.r(A)p.r(C)p.r(C)p.r(A)p.r(C)p.r(A)p.r(G)p.r(C)p.[fl2r](U)p.r(A)p.r(G)p.r(A)p.r(A)p.r(C)p.r(U)p.r(U)}|RNA2{r(G)p.r(U)p.r(U)p.r(C)p.[fl2r](U)p.[fl2r](A)p.r(G)p.r(C)p.[fl2r](U)p.r(G)p.r(U)p.r(G)p.r(G)p.r(U)p.r(G)p.r(G)p.r(G)p.r(U)p.r(U)p.r(U)p.r(U)}$$$RNA1{StrandType:ss}|RNA2{StrandType:as}$”, the target mRNA knockdown amounted to 86%.

Take “RNA1{[s4r](C)p.[s4r](G)p.r(U)p.r(A)p.r(C)p.r(G)p.r(C)p.r(G)p.r(G)p.r(A)p.r(A)p.r(U)p.r(A)p.r(C)p.r(U)p.r(U)p.r(C)p.[s4r](G)p.[s4r](A)p.r(T)p.r(T)}|RNA2{[s4r](U)p.[s4r](C)p.r(G)p.r(A)p.r(A)p.r(G)p.r(U)p.r(A)p.r(U)p.r(U)p.r(C)p.r(C)p.r(G)p.r(C)p.r(G)p.r(U)p.r(A)p.[s4r](C)p.[s4r](G)p.r(T)p.r(T)}$$$RNA1{StrandType:ss}|RNA2{StrandType:as}$”: the target mRNA knockdown amounted to 85.3%.

On to “RNA1{[s4r](C)p.[s4r](G)p.[s4r](U)p.[s4r](A)p.[s4r](C)p.[s4r](G)p.r(C)p.r(G)p.r(G)p.r(A)p.r(A)p.r(U)p.r(A)p.r(C)p.r(U)p.r(U)p.r(C)p.r(G)p.r(A)p.r(T)p.r(T)}|RNA2{r(U)p.r(C)p.r(G)p.r(A)p.r(A)p.r(G)p.r(U)p.r(A)p.r(U)p.r(U)p.r(C)p.r(C)p.r(G)p.[s4r](C)p.[s4r](G)p.[s4r](U)p.[s4r](A)p.[s4r](C)p.[s4r](G)p.r(T)p.r(T)}$$$RNA1{StrandType:ss}|RNA2{StrandType:as}$”, for which the target mRNA knockdown came to 47.8%.

Regarding “RNA1{r(G)p.r(A)p.r(C)p.r(G)p.[hna](U)p.r(A)p.r(A)p.[hna](A)p.r(C)p.r(G)p.[hna](G)p.r(C)p.r(C)p.[hna](A)p.r(C)p.r(A)p.r(A)p.r(G)p.[hna](U)p.r(U)p.d(T)}|RNA2{r(A)p.[hna](C)p.r(U)p.r(U)p.r(G)p.r(U)p.r(G)p.r(G)p.[hna](C)p.r(C)p.r(G)p.r(U)p.r(U)p.r(U)p.r(A)p.r(C)p.r(G)p.[hna](U)p.[hna](C)p.[hna](G)p.d(T)}$$$RNA1{StrandType:ss}|RNA2{StrandType:as}$”, the target mRNA knockdown is 0%. “RNA1{r(A)p.r(A)p.r(A)p.r(C)p.r(A)p.r(U)p.r(G)p.r(C)p.r(A)p.r(G)p.r(A)p.r(A)p.r(A)p.r(A)p.r(U)p.r(G)p.r(C)p.r(U)p.r(G)p.r(T)p.r(T)}|RNA2{[s4r](C)p.[s4r](A)p.r(G)p.r(C)p.r(A)p.r(U)p.r(U)p.r(U)p.r(U)p.r(C)p.r(U)p.r(G)p.r(C)p.r(A)p.r(U)p.r(G)p.r(U)p.[s4r](U)p.[s4r](U)p.r(T)p.r(T)}$$$RNA1{StrandType:ss}|RNA2{StrandType:as}$” came in with a target mRNA knockdown of 42.5%.

The substance “RNA1{m(G)p.r(A)p.m(A)p.r(A)p.m(C)p.r(U)p.m(G)p.r(G)p.m(U)p.r(A)p.m(C)p.r(U)p.m(U)p.r(U)p.m(C)p.r(C)p.m(C)p.r(C)p.m(C)p.r(T)p.r(T)}|RNA2{r(G)p.r(G)p.r(G)p.r(G)p.r(G)p.r(A)p.r(A)p.r(A)p.r(G)p.r(U)p.r(A)p.r(C)p.r(C)p.r(A)p.r(G)p.r(U)p.r(U)p.r(U)p.r(C)p.r(T)p.r(T)}$$$RNA1{StrandType:ss}|RNA2{StrandType:as}$” yielded a target mRNA knockdown of 57%. Under “RNA1{r(A)p.r(U)p.r(C)p.m(G)p.r(A)p.r(C)p.r(C)p.m(U)p.r(G)p.r(A)p.r(A)p.r(G)p.r(G)p.r(A)p.r(G)p.m(U)p.r(A)p.r(C)p.r(G)p.r(T)p.r(T)}|RNA2{r(C)p.r(G)p.m(U)p.r(A)p.r(C)p.r(U)p.r(C)p.r(C)p.r(U)p.r(U)p.m(C)p.r(A)p.r(G)p.r(G)p.r(U)p.r(C)p.r(G)p.r(A)p.r(U)p.r(T)p.r(T)}$$$RNA1{StrandType:ss}|RNA2{StrandType:as}$” stands 29%. Under “RNA1{r(A)p.r(A)p.m(U)p.r(A)p.r(A)p.r(G)p.m(C)p.r(A)p.r(G)p.r(C)p.r(U)p.r(C)p.r(G)p.r(C)p.r(G)p.r(C)p.r(U)p.r(C)p.r(C)p.r(T)p.r(T)}|RNA2{r(G)p.r(G)p.r(A)p.r(G)p.r(C)p.r(G)p.r(C)p.r(G)p.r(A)p.r(G)p.r(C)p.r(U)p.r(G)p.r(C)p.r(U)p.m(U)p.r(A)p.r(U)p.r(U)p.r(T)p.r(T)}$$$RNA1{StrandType:ss}|RNA2{StrandType:as}$” stands 54%; under “RNA1{r(U)p.r(C)p.r(C)p.r(C)p.r(U)p.r(U)p.r(C)p.m(C)p.r(A)p.r(C)p.r(C)p.r(G)p.r(C)p.m(C)p.r(A)p.m(U)p.r(A)p.r(U)p.r(U)p.r(T)p.r(T)}|RNA2{r(A)p.r(A)p.m(U)p.r(A)p.m(U)p.r(G)p.r(G)p.r(C)p.r(G)p.r(G)p.m(U)p.r(G)p.r(G)p.r(A)p.r(A)p.r(G)p.r(G)p.r(G)p.r(A)p.r(T)p.r(T)}$$$RNA1{StrandType:ss}|RNA2{StrandType:as}$”, 47%.

The values are drawn from the OligoGym collection.
